{"source": "patent US20170252312A1", "about": "“PREPARATIONS FOR TREATMENT AND PREVENTION OF ALCOHOL FLUSHING AND ALCOHOL-INDUCED HYPERSENSITIVITY REACTIONS” (BIOHIT OYJ, priority 2014, published 2017)", "origin": "cited, not measured here", "key": {"[1]": {"system": "microbial acetaldehyde formation from ethanol"}, "ADH enzyme": {"system": "ADH enzyme", "conditions": "ALDH2-deficient individuals"}}}
{"smiles": "OC[C@@H](O)[C@H](O)[C@@H](O)CO", "note": "[xylitol]", "values": [{"measurement": "inhibition of microbial acetaldehyde formation from ethanol", "setting": "[1]", "result": "inhibit microbial acetaldehyde formation from ethanol"}]}
{"smiles": "CC=O", "note": "[Acetaldehyde]", "values": [{"measurement": "histamine release", "setting": "human mast cells", "result": "enhance histamine release"}, {"measurement": "histamine release", "setting": "rat mast cells", "result": "enhance histamine release"}]}
{"smiles": "Cc1cn[nH]c1", "note": "[4-MP, 4-methylpyrazole]", "values": [{"measurement": "alcohol-induced increase in salivary acetaldehyde levels", "setting": "ADH enzyme", "result": "markedly decrease"}, {"measurement": "flushing response to alcohol", "setting": "ADH enzyme", "result": "suppressed also significantly"}, {"measurement": "increase in heart rate and skin temperature and drop in diastolic blood pressure", "setting": "ADH enzyme; 4-MP used before ethanol intake", "result": "disappeared"}]}
